Assay results from patent publication US5942521A, “Quinolinone derivative and anti-allergic agent with said quinolinone derivative as the active ingredient” (Dainippon Ink and Chemicals, Inc., priority 1996, dated 1999).

Key:
Assay type in all cases: in vivo
[1] = system: delayed type asthmatic response; test: Effect on experimental delayed type asthma model in guinea pigs; details: AUC of airway resistance 4-8 hours after challenge
Description: (§1) Effect on experimental immediate and delayed type asthma model in guinea pigs
(§2) The asthma is typical allergic disease and we carried out this pharmacological test by experimental asthmatic model in guinea pigs in order to confirm that the compounds of the present invention, compound 21, 41 and 46, suppress immediate and delayed type asthmatic response. In the following, the method of the pharmacological test will be explained.
(§3) Method: Male hartley guinea pigs were sensitized by exposured aerosolized ovalbumine (OVA) (1% in saline) for 10 minutes per a day at eight times. The aerosol was generated by an ultrasonic nebulizer (NE-U12, Omuron inc.). One week after final sensitization, the animals were challenged with inhalation of OVA (2% in saline) for 5 minutes. The animals were pretreated with metyrapone (10 mg/kg, i.v.) at 1 and 4 hours before the challenge, and pyrilamine (10 mg/kg, i.p.) at 30 minutes before the challenge. airway resistance in the conscious animals were measured for 1 minute with PULMOS-1(made in Medical Interface Project Station Inc.) at 1 minute, 2, 4, 5, 6, 7, 8 and 23 to 24 hours after the challenge. Compound 21, 41 and 46 (test compound) suspended in 0.5% methylcellulose (MC) solution were given orally at doses of 5, 10 and 20 mg/kg 1 hour before and 3 hours after the challenge. As a positive control group, Prednisolone was given orally at a dose of 10 mg/kg 2 hours and 16 hours before the challenge. As vehicle control group, only 0.5% MC solution was given orally.
(§4) The evaluation of the effect of the compounds on immediate and delayed type asthmatic response was undertaken with percentage of change in airway resistance 1 minute after the challenge and the area under the response curve for percentage of change in airway resistance between 4 and 8 hours after the challenge, respectively. The inhibition (%) of the compounds for immediate and delayed type asthmatic response was calculated according to equation 4 and the result was shown in table 3. Each experimental group consisted of 8 guinea pigs.
(§5) Inhibition (%)=(A-B)/A×100 (equation 4)
(§6) A: percentage of change in airway resistance in vehicle control group
(§7) B: percentage of change in airway resistance in test compound group or positive control group

[2] = system: contact dermatitis induced by picryl chloride; test: Effect on contact dermatitis induced by picryl chloride in mice; details: Mus musculus, po, read-out: Inhibition (%) of increase of ear thickness; for inhibition in vivo at 20 mg/kg: test compounds, 20 mg/kg p.o. 12 hours after challenge, ear thickness at 24 hours
Procedure: Effect on contact dermatitis induced by picryl chloride in mice
The delayed type hypersensitization is inhibited by steroid, but can not be effected by known anti-allergic agents. In the following, the method of the pharmacological test will be explained.
Method: Mice, shaved their abdominal skin on previous day, were immunized by applying 0.1 ml of acetone containing 7 mg of picryl chloride to the skin of the abdomen. 7 days after immunization, the thickness of the ear was measured with a dial thickness gauge, then mice were challenged by painting […] of 1% picryl chloride olive oil solution to each side skin of left ear. 24 hours after challenge, the thickness of the left ear was measured again. The compounds of the present invention (test compounds) suspended in 0.5% MC were forcibly administered orally at a dose of 20 mg/kg 12 hours after challenge. As vehicle control group, only 0.5% MC solution was administered orally, and as positive control group, Prednisolone, steroid hormone, was administered orally at a dose of 10 mg/kg and as negative control group, Tranilast was administered orally at a dose of 200 mg/kg.
Increase (%)=(A-B)/B×100 (Equation 2)
A: thickness of the ear at 24 hours after challenge
B: thickness of the ear before challenge
Inhibition (%)=(C-D)/C×100 (Equation 3)
C: The increase (%) in vehicle control group
D: The increase (%) in test compounds group, positive control group

[3] = system: immediate type asthmatic response; test: Effect on experimental immediate type asthma model in guinea pigs; details: airway resistance 1 minute after challenge
Description: as §1, §2, §3, §4, §5, §6, §7

[4] = system: passive cutaneous anaphylaxis (PCA) reaction; test: Effect on homologous passive cutaneous anaphylaxis (PCA) reaction in rats; details: Rattus norvegicus, po, 0.5 h; test compounds, 100 mg/kg p.o., 1 hour before induction of anaphylaxis, male wistar rats
Procedure: Effect on homologous passive cutaneous anaphylaxis (PCA) reaction in rats
This experimental animal model is caused by immediate type allergic reaction, namely, antigen-antibody reaction. In the following, the method of this pharmacological test will be explained.
Method: Male wistar rats (9 weeks old) were intradermally administered 0.05 ml of anti-serum against dinitrophenylated ascaris (DNP-As) into two sites on the shaved dorsal skin. 48 hours later, aminoquinolinone derivatives (test compounds) suspended in 0.5% methylcellulose (MC) were given orally at a dose of 100 mg/kg to the animals. 1 hour after administration of Test compounds, the animals were induced anaphylaxis by injection of saline (1 ml) dissolving 1 mg of trinitrophenylated ascaris (TNP-As) and 5 mg of Evans Blue into the tail vein of the animals. 30 minutes after induction of anaphylaxis, animals were anesthetized by ether and killed by bleeding, and were flayed dorsal skin. The leakage of dye was assessed by measuring the diameter (mean of shortest and longest diameter) of the blue spot on the inside surface of dorsal skin. As vehicle control group, only 0.5% MC solution was administered orally, and as positive control group, Tranilast suspended in 0.5% MC were administered orally at a dose of 200 mg/kg to the animals with the same method as the test compounds groups, The inhibition (%) of PCA reaction was calculated according to equation 1 and the result was shown in Table 1. Each experimental group consisted of 5 rats.
In the conditions of this experiment, it was considered that the compound, which inhibited PCA reaction by over forty (40) percent against that in vehicle control group, was evidently effective for immediate type allergy.
Inhibition (%)=(A-B)/A×100 (Equation 1)
A: leakage of dye in vehicle control group
B: leakage of dye in test compound group or positive control group

[5] = Prednisolone 10 mg/kg p.o. 2 hours and 16 hours before challenge
[6] = 5 mg/kg p.o. 1 hour before and 3 hours after challenge
[7] = 10 mg/kg p.o. 1 hour before and 3 hours after challenge
[8] = 20 mg/kg p.o. 1 hour before and 3 hours after challenge

Row | Structure (SMILES) | inhibition (%), delayed type asthma [1, 5] [%] | inhibition in vivo at 10 mg/kg ([2]; 24 h) [%] | inhibition (%), immediate type asthma [3, 5] [%] | inhibition (%), delayed type asthma [1, 6] [%] | inhibition (%), delayed type asthma [1, 7] [%] | inhibition (%), delayed type asthma [1, 8] [%] | inhibition in vivo at 20 mg/kg [2] [%] | inhibition in vivo at 100 mg/kg [4] [%] | inhibition (%), immediate type asthma [3, 6] [%] | inhibition (%), immediate type asthma [3, 7] [%] | inhibition (%), immediate type asthma [3, 8] [%]
1 | C[C@]12C=CC(=O)C=C1CC[C@@H]1[C@@H]2[C@@H](O)C[C@@]2(C)[C@H]1CC[C@]2(O)C(=O)CO [Prednisolone, reference compound] | 51 | 53 | 35 |  |  |  |  |  |  |  | 
2 | CCCCCCOc1c(O)c2ccc(N)cc2n(C)c1=O [compound 21, 7-amino-3-hexyloxy-4-hydroxy-1-methyl-2(1H)-quinolinone] |  |  |  | 23 | 39 | 48 | 51 | 60 | 20 | 30 | 31
3 | CCCCCCCCOc1c(O)c2ccc(NC(=O)/C=C/c3cc(OC)c(O)c(OC)c3)cc2n(C)c1=O [compound 41, 7-(3,5-dimethoxy-4-hydroxycinnamoylamino)-3-octyloxy-4-hydroxy-1-methyl-2(1H)-quinolinone] |  |  |  | 39 | 54 | 84 | 50 | 53 | 26 | 31 | 43
4 | C=CCNc1ccc2c(O)c(OCCCCCCCC)c(=O)n(C)c2c1 [compound 46, 7-(2-propenylamino)-3-octyloxy-4-hydroxy-1-methyl-2(1H)-quinolinone] |  |  |  | 32 | 44 | 53 | 55 | 46 | 30 | 28 | 33
5 | CCCCCCOc1c(O)c2ccc(N(C)C)cc2n(C)c1=O [compound 25, 7-dimethylamino-3-hexyloxy-4-hydroxy-1-methyl-2(1H)-quinolinone] |  |  |  |  |  |  | 48 | 47 |  |  | 
6 | CCCCCCCCOc1c(O)c2ccc(NC(C)=O)cc2n(C)c1=O [compound 39, 7-acetylamino-3-octyloxy-4-hydroxy-1-methyl-2(1H)-quinolinone] |  |  |  |  |  |  | 48 | 50 |  |  | 
7 | CCCCCCCCOc1c(O)c2ccc(NC(=O)/C=C/c3ccc(O)c(OC)c3)cc2n(C)c1=O [compound 45, 7-(4-hydroxy-3-methoxycinnamoylamino)-3-octyloxy-4-hydroxy-1-methyl-2(1H)-quinolinone] |  |  |  |  |  |  | 44 | 41 |  |  | 
